The values below come from patent US5652366A, “DI (1R)-(-)camphosulfonic acid) salt, preparation thereof and use thereof” (Rhone-Poulenc Rorer Pharmaceuticals Inc., priority 1995, dated 1997).

Structures are written as SMILES.

One assay has as its system rat adipocytes. The assay is described as follows: In vitro lipolysis assay in rat adipocytes (glycerol production). Type of assay: cell-based. Particulars: Rattus norvegicus, Adipocyte, read-out: EC50 (50% inhibition of glycerol production); unit nM in cell.
Assay [1] has as its system myocardial infarct in Sprague-Dawley rats. As to the kind of experiment: Cardioprotective activity in rat: myocardial infarct size after coronary occlusion/reperfusion. Type of assay: in vivo. The conditions noted are these: control 63 ± 5, preconditioned 15 ± 8. As to the method:
Adult Sprague-Dawley rats are anesthetized with Inactin (100 mg/kg i.p.). The trachea is intubated and positive pressure ventilation is provided via a small animal respirator. Catheters are placed in the femoral vein and artery for administration of compounds of the present invention to be tested, and measurement of blood pressure, respectively. An incision is made on the left side of the thorax over the pectoral muscles, and the muscles are retracted to expose the fourth intercostal space. The chest cavity is opened and the heart is exposed. A length of 4-0 proline suture is placed through the ventricular wall near the left main coronary artery and is used to interrupt blood flow through the cornary artery by tightening a slip-knot. A pulsed-Doppler flow probe (a device which measures blood flow) is placed on the surface of the heart to confirm that the coronary artery has been porperly identified. […]
For preconditioning the heart, the coronary artery is occluded (flow is interrupted) for a period of two minutes. […] Infarct size is determined by slicing the heart from apex to base into four to five slices 1-2 mm thick. […] The tissue slices are placed in a video image analysis system and infarct size is determined by planimetry. The effect of the compound of the present invention tested on myocardial infarct size is assessed and used to quantirate the extent of cardioprotective activity. […]

The subject of a further assay is A1 and A2 receptors. Particulars: reported developments; cited from earlier work.
A further assay concerns A2 receptor. Particulars: relative to NECA; cited from earlier work.

As a reminder, the EC50 is the concentration needed to bring the measured effect to its halfway point. Turning to `CCNC(=O)[C@H]1C[C@@H](n2cnc3c(N[C@H](CC)Cc4sccc4Cl)ccnc32)[C@H](O)[C@@H]1O` (single isomer, unassigned) [Example 39, [1S-[1α,2β,3β,4α(S*)]]-4-[7-[[2-(3-chloro-2-thienyl)-1-ethylethyl]amino]-3 H-imidazo[4,5-b]pyridin-3-yl]-N-ethyl-2,3-dihydroxycyclopentane-carboxamide], the half-maximal effective concentration (EC50) with rat adipocytes was found to be 5.4 nM. Moreover, the “% Risk Area Infarcted” value was determined as 18 ± 5% in assay [1] (Compound High: i.v. bolus 10 μg/kg, then 1 μg/kg/minute from 30 minutes prior to occlusion to 2 hours after reperfusion) and 23 ± 9% in assay [1] (Compound Low: i.v. bolus 1 μg/kg, then 0.1 μg/kg/minute for 30 minutes prior to occlusion).

In the case of `Nc1nc(Nc2ccccc2)nc2c1ncn2[C@@H]1O[C@H](CO)[C@@H](O)[C@H]1O` [CV-1808], in the assay with A1 and A2 receptors, the A2/A1 ratio is on record as 0.19. Further, the “fold less potent than NECA in affinity for the A2 receptor” value with A2 receptor is given as 10 fold.
